{"source": "patent US9839241B2", "about": "“Methods, devices and systems for pulmonary delivery of active agents” (priority 2014, dated 2017)", "key": {"[1]": {"experiment": "PK study: plasma Δ^9-THC levels after single dose inhalation from cannabis flos with the metered-dose inhaler (MDI)", "procedure": "A study was conducted in order to characterize the inter-individual variability of Δ^9-THC plasma levels during the absorption phase, upon using a hand-held metered-dose MDI device configured for pulmonary delivering pre-determined amounts of the active agent Δ^9-THC from a solid substance (cannabis-derived plant substance) upon heating the substance.\nRoutine medications were continued throughout the trial."}, "[2]": {"experiment": "Monitoring of adverse effects, blood pressure and heart rate after inhalation", "assay_type": "in vivo, human", "procedure": "(§1) The study was used to further evaluate the pharmacodynamic effect of pulmonary delivery of Δ^9-THC on pain reduction from baseline using a 10 cm visual analog scale (VAS) pain scale (0 being no pain; and 10 being worst possible pain); for monitoring adverse effects, blood pressure and heart rate, and for estimating the degree of satisfaction with the use of the MDI on a 0-10 scale.\n(§2) Pain intensity reduction was assessed as a therapeutic effect by asking participants to indicate the intensity of their current pain on a 100 mm visual analog scale (VAS) between 0 (no pain) and 100 (worst possible pain) at baseline (prior to the inhalation) and at 20 and 90 minutes following the pulmonary delivery of the pharmaceutically active agent from cannabis. Adverse effects, in the form of psychotropic symptoms, were recorded at 5, 15, 30, 60 and 120 minutes post pulmonary delivery, along with those spontaneously reported by the participants. Adverse effects were evaluated according to standardized criteria in terms of severity, frequency, duration and relationship to the study's active agent. Adverse effects were graded using the NIH Division of AIDS table for scoring severity of adult adverse experiences. Blood pressure and pulse rate were also recorded before, during and after the pulmonary delivery.\nResults are reported herein as mean values±1 standard deviation (±SD). […]"}, "chronic neuropathic pain": {"test_system": "chronic neuropathic pain", "conditions": "cited from earlier work; for reduction of pain intensity: Wilsey et al. 2013, vaporized 10.3 mg total available Δ^9-THC in two sessions"}, "[3]": {"experiment": "Analysis of residual cannabis material after vaporization in the MDI"}, "[4]": {"conditions": "cited from earlier work; for mean Cmax increase per mg Δ^9-THC: continuous blood withdrawal"}, "neuropathic pain": {"test_system": "neuropathic pain", "experiment": "VAS pain intensity after pulmonary delivery of Δ^9-THC with the MDI", "assay_type": "in vivo, human", "procedure": "as §1\nThe study was conducted at the Pain Research Unit of Rambam Health Care Campus in Haifa, Israel.\nas §2\nResults are reported herein as mean values±1 standard deviation (±SD). For each one of the measured effects (VAS pain intensity, systolic and diastolic blood pressure, heart rate and satisfaction score), the mean and 95% confidence interval (CI) at different time points was plotted. Differences between VAS pain intensity values and satisfaction scores, before and after inhalation, were tested by two-tailed paired Student t-test. Blood pressure and heart rate values were compared among different time points by one-way ANOVA. P-values <0.05 were accepted as significant. All statistical analyses were performed using Minitab Statistical Software, version 16."}}, "note": "“Also recorded” adds a separate entry of the source. Like-named read-outs stand apart in the source and are kept apart here.", "data": [{"smiles": "CCCCCc1cc(O)c2c(c1)OC(C)(C)[C@@H]1CCC(C)=C[C@@H]21", "note": "[Δ^9-THC, Δ9-tetrahydrocannabinol]", "values": [{"measurement": "inter-individual variability of Cmax (coefficient of variation)", "setting": "[1]; MDI device", "value": 25.3, "unit": "%"}, {"measurement": "AUC", "setting": "[1]; human, plasma, inhaled or intranasal, 3.08 mg, AUC (Mean), mean of 8 participants, same single dose inhalation", "value": 10.1, "unit": "ng·h/mL"}, {"measurement": "Cmax", "setting": "[1]; human, plasma, inhaled or intranasal, 3.08 mg, Cmax (Mean), mean of 8 participants, same single dose inhalation", "value": 38, "unit": "ng/mL"}, {"measurement": "Tmax", "setting": "[1]; human, plasma, inhaled or intranasal, 3.08 mg, Tmax (Mean), mean of 8 participants, same single dose inhalation", "value": 3, "unit": "min"}, {"measurement": "AUC(0-inf)", "setting": "[1]; human, plasma, inhaled, 3.08 mg", "value": 10.1, "unit": "ng·h/mL"}, {"measurement": "time of first detection in blood sample", "setting": "[1]; post-inhalation, six patients without residual plasma THC at baseline", "value": 1, "unit": "min"}, {"measurement": "increase of Cmax per mg of Δ^9-THC available in the cannabis used (mean)", "setting": "[1]; pulmonary delivery method described herein (MDI)", "value": 12.3, "unit": "ng/ml/mg Δ^9-THC"}, {"measurement": "plasma concentration profile over time", "setting": "[1]; pulmonary delivery with the MDI", "value": "rapid absorption, followed by bi-phasic decline in plasma concentration over time"}, {"measurement": "time to full recovery from light headedness", "setting": "[2]; all the other patients, post-inhalation", "value": "≤ 30", "unit": "min"}, {"measurement": "adverse effects (overall)", "setting": "[2]; single dose inhalation with MDI, listed as THC", "value": "minimal, reversible and well tolerated; also recorded: minimal, reversible and receded rapidly"}, {"measurement": "mean Cmax elevation", "setting": "chronic neuropathic pain; Ware et al. 2010, single smoke inhalation of 25±1 mg cannabis, 9.4% Δ^9-THC, three times a day for 5 days", "value": 45, "unit": "ng/mL"}, {"measurement": "reduction of neuropathic pain (plateau, ceiling effect)", "setting": "chronic neuropathic pain; Wilsey et al. 2008, smoking 19 mg or 34 mg total available Δ^9-THC in 3 doses", "value": 45, "unit": "%"}, {"measurement": "reduction of pain intensity", "setting": "chronic neuropathic pain; 3 hours", "value": 31, "unit": "%"}, {"measurement": "reduction of pain intensity", "setting": "chronic neuropathic pain; 5 hours", "value": 25, "unit": "%"}, {"measurement": "cannabinol (product of THC oxidation) in residues", "setting": "[3]", "value": "no increase of cannabinol"}, {"measurement": "mean Cmax increase per mg Δ^9-THC", "setting": "[4]; after the first puff of a 1.75% Δ^9-THC cigarette", "value": 3.54, "unit": "ng/ml per mg Δ^9-THC"}, {"measurement": "mean Cmax increase per mg Δ^9-THC", "setting": "[4]; after the first puff of a 3.55% Δ^9-THC cigarette", "value": 4.28, "unit": "ng/ml per mg Δ^9-THC"}, {"measurement": "plasma Cmax levels per mg of Δ^9-THC administered", "setting": "[4]; intravenous administration (Ohlsson et al. 1980)", "value": 43.8, "unit": "ng Δ^9-THC/ml plasma"}, {"measurement": "inter-individual variability of Cmax (coefficient of variation)", "setting": "[4]; oral administration", "value": "42-115%"}, {"measurement": "inter-individual variability of Cmax (coefficient of variation)", "setting": "[4]; oromucosal route of delivery", "value": "59-67%"}, {"measurement": "inter-individual variability of Cmax (coefficient of variation)", "setting": "[4]; smoking cigarettes", "value": "32-115%"}, {"measurement": "inter-individual variability of Cmax (coefficient of variation)", "setting": "[4]; vaporizer (Abrams)", "value": "47-85%"}, {"measurement": "decrease of VAS pain intensity from baseline", "setting": "neuropathic pain; 20 minutes after inhalation, baseline 7.5±1.4, 95% CI [2.1, 4.9], P=0.001", "value": 3.4, "unit": "points"}, {"measurement": "VAS pain intensity versus baseline", "setting": "neuropathic pain; 90 minutes post-dosing", "value": "virtually identical results as at baseline"}, {"measurement": "time to reversal of pain reduction", "setting": "neuropathic pain; single inhalation, 3.08±0.02 mg total available Δ^9-THC", "value": "≤ 90", "unit": "min"}]}]}
